A short description of series [1]: CSF sampling model: phage recovered from CSF of cisterna magna cannulated conscious rats after i.v. injection (plaque counting). It counts as in vivo, rat. An excerpt: (§1) The cisterna magna (CM) was cannulated using modification of methods previously described. Anesthetized Wistar rats (200–350 g) were mounted onto a stereotaxic device and a median incision was made on the top of the shaved and aseptically prepared skin of head to expose the skull. Two holes were drilled at the parietal region and mounting screws were secured in the holes. An additional hole was drilled at the external occipital crest and used to stereotactically guide the stainless steel cannula into the CM. Dental cement was applied around the cannula and the screws to hold it in place. After light curing and solidification of the cement, the skin wound was sutured with a 4/0 supramid yarn. Correct placement of the cannula is confirmed by spontaneous flow of cerebrospinal fluid (CSF). The rats were removed from the stereotaxic apparatus, received appropriate post-operative care and analgesic treatment and allowed to recover for at least one week until no sign of blood in the CSF was observed. Wistar rats (Crl:WI/Han) were obtained from Charles River (France). All rats were kept under specific pathogen-free conditions. All animal experiments were approved by the Swiss Veterinary Office Basel-Stadt and were carried out in accordance with the animal permission #2474 (Assessment of active brain transport by measuring the level of therapeutic candidates in the rat CSF and brain).
The CM cannulated conscious rats were gently held in the hand. The mandrain was pulled out of the cannula and 10ul of the spontaneous flowing CSF was collected. Only clear CSF samples with no sign of blood contamination or discoloration were included in this study since patency of the cannula was eventually compromised. In parallel ∼10–20 μL blood from a small incision of the tip of the tail was collected in heparin (Sigma-Aldrich) containing tubes. CSF and blood was collected at different time points after intravenous injection of the T7 bacteriophages. Prior to collecting every CSF sample ∼5–10 μL of fluid was discarded, which represents the catheter dead volume.
The amplified phages underwent 2–3 rounds of endotoxin removal using endotoxin removal beads (Miltenyi Biotec) before intravenous (i.v.) injection (500 ul/animal). 2 × 10^12 phages were injected in the first, 2 × 10^10 phages were injected in the second and 2 × 10^9 phages were injected per animal in the third and fourth round of selection. The phage contents in the CSF and blood samples harvested at the indicated time-points were determined by a plaque counting assay according to the manufacturer’s instructions (T7Select System Manual). Phage selection was carried out by i.v. tail vein injection of the purified library or by re-injection of the CSF recovered phages of the previous selection round, and 10 min, 30 min, 60 min, 90 min, 120 min, 180 min respectively 240 min later CSF and blood samples were collected. A total of four rounds of in vivo panning were performed in which two selection branches were kept and analyzed separately during the first three selection rounds. All CSF recovered phage inserts of the first two selection rounds were subjected to 454/Roche pyrosequencing whereas all CSF recovered clones of the last two selection rounds were manually sequenced. All blood harvested phages of the first selection round were also 454/Roche pyrosequenced. For the injection of the phage clones the selected phages were amplified in E. coli (BL5615) on 500 cm^2 plates at 37 °C for 4 hours. The individually picked and manually sequenced clones were amplified in TB medium. After phage extraction, purification and endotoxin removal steps (described above) 2 × 10^10 phages/animal in 300 μl were i.v. injected into one tail vein.
Supplementary Figure 3 – Pharmacokinetic profiles of wt T7 phage in the CSF and blood
compartments. Determination of the clearance of wt phage from the blood and their occurrence in
the CSF compartment over time. […]

The nature of series [2]: Blood pharmacokinetics of i.v. injected T7 phage in cisterna magna cannulated rats (plaque counting). It is filed as in vivo, rat.
Excerpt: as §1
The CM cannulated conscious rats were gently held in the hand. The mandrain was pulled out of the cannula and 10ul of the spontaneous flowing CSF was collected. […]
The amplified phages underwent 2–3 rounds of endotoxin removal using endotoxin removal beads (Miltenyi Biotec) before intravenous (i.v.) injection (500 ul/animal). […] The phage contents in the CSF and blood samples harvested at the indicated time-points were determined by a plaque counting assay according to the manufacturer’s instructions (T7Select System Manual). […] A total of four rounds of in vivo panning were performed in which two selection branches were kept and analyzed separately during the first three selection rounds. […]

A further series relates to brain capillaries. Put plainly: Immunohistochemistry of phage particles in rat brain 1 hour after i.v. injection. It counts as in vivo. As to conditions: 2 × 10^10 phage/animal, FITC anti-T7 antibody. On the procedure:
Selected phage clones and insertless phage were i.v. injected via tail vein (2 × 10^10 phage/animal in 300 μl PBS). 10 minutes before perfusion and subsequent fixation 100 ul DyLight594 labeled lectin (Vector Laboratories Inc., DL-1177) was i.v. injected into the same animals. 60 minutes after phage administration rats were perfused through the heart with 50 ml PBS followed by 50 ml 4% PFA/PBS. Brain samples were additionally fixed by 4% PFA/PBS overnight and immersed in 30% sucrose at 4 °C overnight. Samples were frozen quickly in O.C.T. compound. Frozen samples were subject to immunohistochemistry, performed on 30 um freezing sections blocked with 1% BSA for 2 hours at room temperature and incubated with a polyclonal FITC labeled antibody against the T7 phage (Novus NB 600-376A) overnight at 4 °C. Finally, the sections were then washed 3 times with PBS and observed with a laser confocal microscope (Leica TCS SP5).

Setting [3] is: 2 × 10^10 phages/animal i.v., CM cannulated rats, result in words.
Where [4] appears, read: wt T7 phage, 1x10^10 phage i.v., 4 cannulated rats, plaque counting.
[5] abbreviates: wt phage i.v., average over entire sampling period (0–250 minutes).

“Also recorded” adds a separate entry of the source.

As to “RLSSVDSDLSGC [#2077, T7 phage clone displaying …; also synthesized as N-terminally biotinylated transport peptide]”, in series [1] (setting [3]), the “CSF concentration course over the sampling time” value is listed as “stabilized at a high level” and the “CSF titer change during the first 10 minutes” value is “increased during the first 10 minutes”. Further, in series [1] (2 × 10^10 phages/animal i.v., at least three CM cannulated rats, result in words), the “long term CSF profile over 48 hour period” value is “rapid increase in CSF and a sustainable level”. For the same sequence, the “CSF titer relative to empty control phage (#1779)” value in series [1] (2 × 10^10 phages/animal tail vein i.v., at least 3 CM cannulated rats each) is recorded as “about 1000 fold”. Further, the “stability in the blood / plasma half-life compared to other hits” value in series [2] (setting [3]) was “increased stability in the blood; also recorded: prolonged plasma half-life compared to other hits”. The “phage staining in the brain capillaries (IHC)” value in the series with brain capillaries is reported as “strong staining in the brain capillaries”.
Regarding “PAGISRELVDKL [wt phage, wild-type T7 phage with backbone 12-mer insert …, reference compound]”, the “half-life in CSF” value in series [1] (setting [4]) is reported as 25.7 min. In series [1] (setting [5]), the “CSF phage as percentage of the blood T7 phage titer” value is “about 1 × 10^−3%” and the “CSF phage as percentage of the initially injected phage” value is ~4 × 10^−8%. In addition, the “CSF phage as percentage of the blood T7 phage titer” value in series [1] (wt phage i.v., average over entire sampling period (0–250 minutes), listed as wt T7 phages) came out at 0.001%. In series [2] (rat, tail vein i.v., calculated from injected titer and rat blood volume), the “injected dose of wt phage detected in the blood 10 min post i.v. injection” value is recorded as “about 1%”. Besides, the “half-life in blood (slower first-order clearance after initial rapid drop)” value in series [2] (setting [4]) is given as 27.7 min.

(Values after article PMC4585929, “Cargo Delivery into the Brain by in vivo identified Transport Peptides” (Scientific Reports, 2015).)
